Source: US12103952B2, “Methods for expressing proteins in axons” (Cornell University, priority 2010, dated 2024)

Tests used:
[1] = tested on: CREB reporter mRNA translation in DRG axons; assay: myr-dEGFP3′CREB Sindbis translation reporter in axons; format: cell-based, rat; settings: factor restored after NGF-free media
From the text: FIGS. 5A-C are results showing NGF-dependent translation of a CREB reporter mRNA in axons. (A) Schematic diagram of the Sindbis viral reporter construct used to monitor CREB translation. The reporter contains a myristoylated, destabilized EGFP (myr-dEGFP) with the 3′UTR of CREB, expressed under control of the Sindbis subgenomic promoter (PSG). (B) E15 DRG explant cultures were infected with Sindbis constructs expressing myr-dEGFP3′CREB on DIV3 and fluorescence (bottom panel) and phase (top panel) images, approximately 1000 μm from the cell body were collected after 24 hours. Fluorescence images are shown in inverted contrast in order to more readily visualize puncta. Scale bar, 25 μm. […] EGFP fluorescence co-localizes with a population of S6-labeled ribosomal clusters. […]
FIGS. 6A-H are data showing that axonal CREB is specifically translated in response to NGF. […] (B) E15 DRG explant cultures were infected with Sindbis constructs expressing myr-dEGFP3′RhoA or myr-dEGFP3′H1f0 on DIV3 and fluorescence images were collected after 24 h. […] (D) Axons from DIV3 DRGs were analyzed for CREB and mitochondrial localizations by immunofluorescence using CREB-specific and VDAC/porin1-specific antibodies. […] CREB mRNA was detected by FISH using a CREB specific riboprobe. […] (H) Axons of DIV3 DRG explant cultures were analyzed by immunofluorescence for NGF effectors CREB, pTrkA and pErk5 at 3 DIV. […]

4E-BP1 = assay: Phospho-4E-BP1 immunofluorescence in axons; format: cell-based, rat; settings: NGF 1 hour after 2 hour NGF-free media
Experimental: FIGS. 2A-E are results showing that local protein synthesis in axons is required for NGF-dependent survival. (A) Phospho-4E-BP1 levels increase in growth cones in response to NGF treatment. DRG neurons were incubated with NGF-replete or NGF-free media; phospho-4E-BP1 levels in axons were measured by immunofluorescence. Scale bar, 50 μm. (B) Quantification of total and phospho-4EBP1 in (A) p=0.012. Numbers on bars represent n axons per condition. (C) Schematic diagram of compartmented (Campenot) chambers. E15 dissociated DRG neurons are cultured in the cell body compartment and axons grow under a thinly applied silicone grease layer that seals the chamber with the Permanox® plastic culture slide. (D) Application of protein synthesis inhibitors to axons blocks NGF-mediated retrograde survival. Dissociated DRG neurons were grown in compartmentalized chambers, and vehicle or NGF was added to the axon compartment. 1 μM cycloheximide (CHX) or 40 μM anisomycin (Aniso) were added to the axon compartment concurrently with NGF media. Cell body compartments were kept NGF-free during the course of the experiment. Cells crossing the divider were retrogradely labeled with WGA-Alexa555 and only WGA-positive cell bodies were counted in the data set. Survival was assessed by TUNEL assay. […] (E) Quantification of results from (D). *p<0.001. […]

## NGF: nerve growth factor
[1]
  fluorescent myr-dEGFP3′CREB puncta: reappeared following restoration of NGF
4E-BP1
  phosphorylation of 4E-BP1 in axons: increased phosphorylation of 4E-BP1 at S64 and T69
